The results in this text go back to patent US11787762B2, “Tetralin and tetrahydroquinoline compounds as inhibitors of HIF-2alpha” (ARCUS BIOSCIENCES, INC., priority 2020, dated 2023).

In experiment [1] the target is T1, Histidine tagged HIF-2α protein containing PAS-B domain (240-350) (Homo sapiens, UniProt Q99814).
T1 construct: HIF-2α protein containing PAS-B domain (240-350); made in house
In words: HIF-2α Scintillation Proximity Assay (SPA) binding assay. Conditions: 50 nM HIF-2α protein, 25 nM 3H-tracer. A digest of the protocol:
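His-tagged HIF-2α PAS-B (240-350), 50 nM final, preincubated with compound 1 h at room temperature in 25 mM Tris-HCl pH 7.4, 150 mM NaCl, 0.15% BSA, 0.001% Tween 20, 2% DMSO. Copper-chelate SPA beads (3 ug/well, 45 min) and 25 nM tritiated N-(3-chlorophenyl)-4-nitro-2,1,3-benzoxadiazol-5-amine tracer followed; IC50 from four-parameter fits.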
A general note: In a scintillation proximity assay essentially only radioactivity close to the scintillant gives light.

Another experiment concerns the target T2, HIF-2α (Homo sapiens, UniProt Q99814).
T2 construct: host or cells: 786-O cells stably transduced with Cignal Lenti HIF Luc Reporter (only the reporter was introduced, not HIF-2α)
The experiment is described as follows: HIF-2α luciferase reporter assay in HIF-Luc-786-O cells. It counts as cell-based. A digest of the protocol:
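786-O cells stably carrying a HIF-responsive luciferase reporter, 20,000/well in OptiMem with 1% DMSO, exposed to compound up to 50 uM for 20 h at 37 °C. ONE-Glo luminescence normalised to DMSO and no-cell controls; IC50 by four-parameter fit.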

T2 sequence (Q99814 whole entry): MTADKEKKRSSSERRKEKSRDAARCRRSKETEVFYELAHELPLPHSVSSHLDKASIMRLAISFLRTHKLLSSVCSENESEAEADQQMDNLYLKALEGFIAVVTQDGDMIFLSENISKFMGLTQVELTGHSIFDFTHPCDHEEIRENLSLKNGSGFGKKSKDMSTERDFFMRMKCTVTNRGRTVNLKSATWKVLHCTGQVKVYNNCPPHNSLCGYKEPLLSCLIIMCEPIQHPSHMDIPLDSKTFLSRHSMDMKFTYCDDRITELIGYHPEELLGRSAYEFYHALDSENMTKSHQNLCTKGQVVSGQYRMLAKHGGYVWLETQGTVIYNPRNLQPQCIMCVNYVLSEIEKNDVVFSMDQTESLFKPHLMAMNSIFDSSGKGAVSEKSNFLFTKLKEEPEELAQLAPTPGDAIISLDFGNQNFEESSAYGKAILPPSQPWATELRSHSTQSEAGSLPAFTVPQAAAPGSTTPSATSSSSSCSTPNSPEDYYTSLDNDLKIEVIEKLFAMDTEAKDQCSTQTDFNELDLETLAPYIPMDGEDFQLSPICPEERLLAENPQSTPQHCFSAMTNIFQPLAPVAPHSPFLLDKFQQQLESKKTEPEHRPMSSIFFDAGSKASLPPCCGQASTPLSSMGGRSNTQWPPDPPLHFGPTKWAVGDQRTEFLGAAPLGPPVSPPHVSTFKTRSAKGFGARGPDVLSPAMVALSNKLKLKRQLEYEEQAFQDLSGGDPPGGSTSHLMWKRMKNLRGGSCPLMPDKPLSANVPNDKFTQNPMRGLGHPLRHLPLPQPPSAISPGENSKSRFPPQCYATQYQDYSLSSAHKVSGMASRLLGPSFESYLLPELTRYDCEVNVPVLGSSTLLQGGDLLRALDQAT
T1 sequence (Q99814 240-350): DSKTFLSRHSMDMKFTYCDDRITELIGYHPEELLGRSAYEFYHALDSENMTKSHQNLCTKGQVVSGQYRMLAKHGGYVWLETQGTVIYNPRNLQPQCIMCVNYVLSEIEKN

On to `CC1(O)CCN(c2ccc(C(F)(F)F)c(F)c2C#N)c2c(C#N)cc(F)cc21` (stereo not drawn) [Example 120], for which the IC50 was 100 to 1000 nM in experiment [1] (Table 1) and 100 to 1000 nM against HIF-2α (Table 1, 20 hours incubation).

As for `N#Cc1cc(F)cc2c1N(c1ccc(C(F)(F)F)c(F)c1C#N)CC[C@@H]2F` [Example 121, (4S)-1-[2-Cyano-3-fluoro-4-(trifluoromethyl)phenyl]-4,6-difluoro-3,4-dihydro-2H-quinoline-8-carbonitrile], the half-inhibitory concentration (IC50) in experiment [1] (Table 2) was < 100 nM; at HIF-2α (Table 2, 20 hours incubation), < 100 nM.

For the compound `CS(=O)(=O)c1ccc(N2CCC(F)c3cc(F)cc(C#N)c32)c(C#N)c1Cl` (stereo not drawn) [Example 122, 1-(3-chloro-2-cyano-4-methylsulfonylphenyl)-4,6-difluoro-3,4-dihydro-2H-quinoline-8-carbonitrile], the concentration for half-maximal inhibition (IC50) in experiment [1] (Table 2) is < 100 nM; on HIF-2α (Table 2, 20 hours incubation), < 100 nM.

Regarding `N#Cc1cc(F)cc2c1N(c1ccc(C(F)(F)F)c(Cl)c1C#N)CCC2F` (stereo not drawn) [Example 123, 1-[3-Chloro-2-cyano-4-(trifluoromethyl)phenyl]-4,6-difluoro-3,4-dihydro-2H-quinoline-8-carbonitrile], the half-inhibitory concentration (IC50) was < 100 nM in experiment [1] (Table 2) and < 100 nM at HIF-2α (Table 2, 20 hours incubation).

Regarding `N#Cc1cc(F)cc2c1N(c1ccc(C(F)(F)F)c(F)c1C#N)CCC2C#N` (stereo not drawn) [Example 124, 1-[2-cyano-3-fluoro-4-(trifluoromethyl)phenyl]-6-fluoro-3,4-dihydro-2H-quinoline-4,8-dicarbonitrile], the IC50 in experiment [1] (Table 2) is < 100 nM; against HIF-2α (Table 2, 20 hours incubation), < 100 nM.

As for `N#Cc1cc(F)cc2c1N(c1ccc(C(F)(F)F)c(F)c1C#N)CCC2(F)F` [Example 125, 1-[2-cyano-3-fluoro-4-(trifluoromethyl)phenyl]-4,4,6-trifluoro-2,3-dihydroquinoline-8-carbonitrile], the IC50 in experiment [1] (Table 2) was < 100 nM; at HIF-2α (Table 2, 20 hours incubation) it was < 100 nM.

Turning to `Cc1c(N2CCC(F)(F)c3cc(F)cc(C#N)c32)cnc(C(C)(F)F)c1F` [Example 126, 1-[6-(1,1-Difluoroethyl)-5-fluoro-4-methylpyridin-3-yl]-4,4,6-trifluoro-2,3-dihydroquinoline-8-carbonitrile], the 50% inhibitory concentration (IC50) in experiment [1] (Table 2) was < 100 nM; on HIF-2α (Table 2, 20 hours incubation), < 100 nM.

For `N#Cc1cc(F)cc2c1N(c1cnc(C(F)(F)F)c(F)c1Cl)CCC2(F)F` [Example 127, 1-[4-Chloro-5-fluoro-6-(trifluoromethyl)pyridin-3-yl]-4,4,6-trifluoro-2,3-dihydroquinoline-8-carbonitrile], the IC50 in experiment [1] (Table 2) is < 100 nM; against HIF-2α (Table 2, 20 hours incubation) it was < 100 nM.

On to `Cc1c(N2CCC(F)(F)c3cc(F)cc(C#N)c32)cnc(C(F)(F)F)c1C#N` [Example 128, 1-[5-cyano-4-methyl-6-(trifluoromethyl)pyridin-3-yl]-4,4,6-trifluoro-2,3-dihydroquinoline-8-carbonitrile], for which the IC50 in experiment [1] (Table 2) is < 100 nM; on HIF-2α (Table 2, 20 hours incubation), < 100 nM.

In the case of `Cc1c(N2CCC(F)(F)c3cc(F)cc(C#N)c32)cnc(C(F)(F)F)c1F` [Example 129, 4,4,6-Trifluoro-1-[5-fluoro-4-methyl-6-(trifluoromethyl)pyridin-3-yl]-2,3-dihydroquinoline-8-carbonitrile], the IC50 in experiment [1] (Table 2) is < 100 nM; against HIF-2α (Table 2, 20 hours incubation) it was < 100 nM.

With `N#Cc1cc(F)cc2c1N(c1ccc(C(F)(F)F)c(F)c1C#N)C[C@H](F)[C@@H]2F` [Example 130, (3S,4R)-1-[2-Cyano-3-fluoro-4-(trifluoromethyl)phenyl]-3,4,6-trifluoro-1,2,3,4-tetrahydroquinoline-8-carbonitrile], the IC50 was < 100 nM in experiment [1] (Table 2) and < 100 nM on HIF-2α (Table 2, 20 hours incubation).

As for `COC1CCN(c2ccc(C(F)(F)F)c(F)c2C#N)c2c(C#N)cc(F)cc21` (stereo not drawn) [Example 131, 1-[2-Cyano-3-fluoro-4-(trifluoromethyl)phenyl]-6-fluoro-4-methoxy-3,4-dihydro-2H-quinoline-8-carbonitrile], the concentration for half-maximal inhibition (IC50) was < 100 nM in experiment [1] (Table 2) and < 100 nM against HIF-2α (Table 2, 20 hours incubation).

In general, IC50 refers to the concentration needed to halve the response being measured.
